# Laboratory results: PubChem BioAssay (NCI)
#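 Five compound concentrations were applied to cells in 96-well plates for 48 hours; endpoints were derived by simple linear interpolation of the resulting dose-response curve. At the TGI there is no net growth.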
# Experiments:
# Experiment in all cases: NCI tumour cell line growth inhibition, 48 h
# [1] = system: RPMI-8226 leukemia
# [2] = system: LOX IMVI melanoma
# [3] = system: SR leukemia
# [4] = system: UACC-62 melanoma
# [5] = system: SF-295 CNS
# [6] = system: UO-31 renal
# [7] = system: P388 leukemia
# [8] = system: SN12K1 renal
# [9] = system: NCI-H460 lung
# [10] = system: SK-MEL-2 melanoma
# [11] = system: CAKI-1 renal
# [12] = system: SW-620 colon
# [13] = system: BT-549 breast
# [14] = system: UACC-257 melanoma
# [15] = system: OVCAR-3 ovarian
# [16] = system: NCI-H522 lung
# [17] = system: IGROV1 ovarian
# [18] = system: HCT-116 colon
# [19] = system: HOP-92 NSCLC
# [20] = system: SNB-78 CNS
# [21] = system: HS 578T breast
# [22] = system: DLD-1 colon
# [23] = system: SK-MEL-5 melanoma
# [24] = system: MCF7 breast
# [25] = system: MOLT-4 leukemia
# [26] = system: A498 renal
# [27] = system: OVCAR-5 ovarian
# [28] = system: PC-3 prostate
# [29] = system: M14 melanoma
# [30] = system: DU-145 prostate
# [31] = system: HOP-18 NSCLC
# [32] = system: CCRF-CEM leukemia
# [33] = system: MDA-MB-231 breast
# [34] = system: DMS 114 small cell lung
# [35] = system: HCT-15 colon
# [36] = system: DMS 273 small cell lung
# [37] = system: HOP-62 NSCLC
# [38] = system: SN12C renal
# [39] = system: EKVX NSCLC
# [40] = system: HL-60(TB) leukemia
# [41] = system: SF-539 CNS
# [42] = system: SK-MEL-28 melanoma
# [43] = system: XF 498 CNS
# [44] = system: HCC-2998 colon
# [45] = system: MALME-3M melanoma
# [46] = system: TK-10 renal
# [47] = system: MDA-MB-435
# [48] = system: NCI-H23 lung
# [49] = system: KM12 colon
# [50] = system: HT29 colon
# [51] = system: SF-268 CNS
# [52] = system: P388/ADR leukemia
# [53] = system: NCI-H226 lung
# [54] = system: ACHN renal
# [55] = system: SNB-75 CNS
# [56] = system: A549 NSCLC
# [57] = system: SNB-19 CNS
# [58] = system: 786-0 renal
# [59] = system: NCI/ADR-RES ovarian
# [60] = system: OVCAR-8 ovarian
# [61] = system: COLO 205 colon
# [62] = system: M19-MEL melanoma
# [63] = system: SK-OV-3 ovarian
# [64] = system: KM20L2 colon
# [65] = system: T-47D breast
# [66] = system: U251 CNS
# [67] = system: K-562 leukemia
# [68] = system: OVCAR-4 ovarian
# [69] = system: RXF-631 renal
smiles,measurement,setting,value
CCc1ccccc1N1CCN(C(=O)c2cc(OC)c(OC)c(OC)c2)CC1,TGI,[1],23.1 µM
same,TGI,[2],29.3 µM
same,TGI,[3],> 55.1 µM
same,TGI,[4],> 68.8 µM
same,TGI,[5],0.0341 µM
same,TGI,[6],63.4 µM
same,TGI,[7],0.367 µM
same,TGI,[8],0.194 µM
same,TGI,[9],2.8 µM
same,TGI,[10],2.78 µM
same,TGI,[11],43 µM
same,TGI,[12],> 100 µM
same,TGI,[13],5.87 µM
same,TGI,[14],> 73.2 µM
same,TGI,[15],0.463 µM
same,TGI,[16],0.029 µM
same,TGI,[17],> 51.4 µM
same,TGI,[18],16.5 µM
same,TGI,[19],12.3 µM
same,TGI,[20],> 100 µM
same,TGI,[21],0.0608 µM
same,TGI,[22],> 100 µM
same,TGI,[23],3.79 µM
same,TGI,[24],35 µM
same,TGI,[25],41.4 µM
same,TGI,[26],0.985 µM
same,TGI,[27],> 100 µM
same,TGI,[28],> 9.26 µM
same,TGI,[29],2.6 µM
same,TGI,[30],0.715 µM
same,TGI,[31],> 91.9 µM
same,TGI,[32],> 100 µM
same,TGI,[33],> 100 µM
same,TGI,[34],0.692 µM
same,TGI,[35],> 23.6 µM
same,TGI,[36],> 100 µM
same,TGI,[37],> 46.2 µM
same,TGI,[38],> 100 µM
same,TGI,[39],20.9 µM
same,TGI,[40],1.62 µM
same,TGI,[41],0.12 µM
same,TGI,[42],> 70.2 µM
same,TGI,[43],17.9 µM
same,TGI,[44],2.09 µM
same,TGI,[45],55.9 µM
same,TGI,[46],> 93.3 µM
same,TGI,[47],< 0.0113 µM
same,TGI,[48],23.3 µM
same,TGI,[49],2.64 µM
same,TGI,[50],0.617 µM
same,TGI,[51],> 100 µM
same,TGI,[52],4.22 µM
same,TGI,[53],5.6 µM
same,TGI,[54],66.4 µM
same,TGI,[55],> 100 µM
same,TGI,[56],72.4 µM
same,TGI,[57],> 56 µM
same,TGI,[58],> 100 µM
same,TGI,[59],1.63 µM
same,TGI,[60],13.6 µM
same,TGI,[61],0.108 µM
same,TGI,[62],> 100 µM
same,TGI,[63],4.55 µM
same,TGI,[64],0.307 µM
same,TGI,[65],67.9 µM
same,TGI,[66],4.14 µM
same,TGI,[67],39.4 µM
O=c1[nH]nc2ccccc2c1Cl,TGI,[1],8.87 µM
same,TGI,[2],37.5 µM
same,TGI,[4],25.6 µM
same,TGI,[5],46.9 µM
same,TGI,[6],28.2 µM
same,TGI,[9],46.2 µM
same,TGI,[10],33.6 µM
same,TGI,[11],12 µM
same,TGI,[12],34.2 µM
same,TGI,[14],29.7 µM
same,TGI,[15],6.21 µM
same,TGI,[17],28.5 µM
same,TGI,[18],29.9 µM
same,TGI,[19],12.3 µM
same,TGI,[20],41.1 µM
same,TGI,[22],22.8 µM
same,TGI,[25],36.8 µM
same,TGI,[26],33.2 µM
same,TGI,[27],33.9 µM
same,TGI,[29],25.6 µM
same,TGI,[31],29.1 µM
same,TGI,[32],34.9 µM
same,TGI,[34],18.9 µM
same,TGI,[35],25.3 µM
same,TGI,[36],35.5 µM
same,TGI,[37],40.7 µM
same,TGI,[38],34.2 µM
same,TGI,[39],15.5 µM
same,TGI,[41],29.9 µM
same,TGI,[43],28.1 µM
same,TGI,[44],7.27 µM
same,TGI,[45],31 µM
same,TGI,[68],23.8 µM
same,TGI,[69],28.4 µM
same,TGI,[46],33 µM
same,TGI,[48],35.9 µM
same,TGI,[49],26.6 µM
same,TGI,[50],23.6 µM
same,TGI,[51],41.9 µM
same,TGI,[53],52.8 µM
same,TGI,[54],30.8 µM
same,TGI,[55],47.1 µM
same,TGI,[56],91.5 µM
same,TGI,[57],30.5 µM
same,TGI,[58],28.4 µM
same,TGI,[60],54.3 µM
same,TGI,[61],23.4 µM
same,TGI,[62],20.1 µM
same,TGI,[63],33.5 µM
same,TGI,[64],29.5 µM
same,TGI,[66],29.2 µM
same,TGI,[67],24.7 µM
